Assay results as given in US7087757B2, “Phenyl-substituted imidazopyridines” (Ortho-McNeil Pharmaceutical, Inc., priority 2000, dated 2006).

Target: T1, human histamine H3 receptor (Homo sapiens, UniProt Q9Y5N1)
T1 construct: One microgram supercoiled H3 receptor cDNA was added to the cells and mixed; expressed in transfected cells; membranes prepared from cell pellets
Assay: [3H]-N-methylhistamine binding
Details: membranes of histamine H3 receptor-expressing SK-N-MC cells; 0.8 nM [3H]-N-methylhistamine; 45 minutes at 25° C.; Ki calculated with KD of 800 pM
Procedure: Screening using the human receptor is particularly important for the identification of new therapies for the treatment of human disease.
A 10 cm tissue culture dish with a confluent monolayer of SK-N-MC cells was split two days prior to transfection. Using sterile technique the media was removed and the cells were detached from the dish by the addition of trypsin. One fifth of the cells were then placed onto a new 10 cm dish. Cells were grown in a 37° C. incubator with 5% CO2 in Minimal Essential Media Eagle with 10% Fetal Bovine Serum. After two days cells were approximately 80% confluent. These were removed from the dish with trypsin and pelleted in a clinical centrifuge. […] One microgram supercoiled H3 receptor cDNA was added to the cells and mixed. The voltage for the electroporation was set at 0.25 kV, the capacitance is set at 960 μF.
After electroporation the cells were diluted into 10 mL complete media and plated onto four 10 cm dishes. Due to the variability in the efficiency of electroporation, four different concentrations of cells were plated. The ratios used were: 1:20, 1:10, and 1:5, with the remainder of the cells being added to the fourth dish. The cells were allowed to recover for 24 hours before adding the selection media (complete media with 600 μg/ml G418). After 10 days dishes were analyzed for surviving colonies of cells. Dishes with well-isolated colonies were used. Cells from individual colonies were isolated and tested. SK-N-MC cells were used because they give efficient coupling for inhibition of adenylate cyclase. The clones that gave the most robust inhibition of adenylate cyclase in response to histamine were used for further study.
Cell pellets from histamine H3 receptor-expressing SK-N-MC cells were homogenized in 20 mM Tris HCl/0.5 mM EDTA. Supernatants from a 800 g spin were collected, reccentrifuged at 30,000 g for 30 minutes. Pellets were rehomogenized in 50 mM Tris/5 mM EDTA (pH 7.4). Membranes were incubated with 0.8 nM [^3H]-N-methylhistamine plus/minus test compounds for 45 minutes at 25° C. and harvested by rapid filtration over GF/C glass fiber filters (pretreated with 0.3% polyethylenimine) followed by four washes with ice cold buffer. Filters were dried, added to 4 mL scintillation cocktail and then counted on a liquid scintillation counter.

T1 sequence (Q9Y5N1 whole entry): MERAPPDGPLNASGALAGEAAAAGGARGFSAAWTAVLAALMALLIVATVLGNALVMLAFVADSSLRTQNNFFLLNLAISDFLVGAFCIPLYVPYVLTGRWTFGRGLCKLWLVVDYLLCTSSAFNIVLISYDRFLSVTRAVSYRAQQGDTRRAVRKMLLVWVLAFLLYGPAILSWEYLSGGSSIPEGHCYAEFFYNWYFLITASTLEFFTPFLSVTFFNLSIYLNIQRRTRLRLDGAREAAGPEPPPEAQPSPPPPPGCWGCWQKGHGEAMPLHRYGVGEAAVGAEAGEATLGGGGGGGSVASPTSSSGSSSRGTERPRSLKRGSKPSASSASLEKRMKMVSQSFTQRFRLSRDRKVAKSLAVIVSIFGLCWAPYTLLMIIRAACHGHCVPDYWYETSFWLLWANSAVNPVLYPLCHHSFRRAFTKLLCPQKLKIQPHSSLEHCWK

Row | SMILES | Ki [µM]
1 | CCCN(CCC)CC(O)COc1ccc(-c2cn3cccc(C)c3n2)cc1 (stereo not shown) [Example 47, 2-(4-Dipropylamino(2-hydroxy)propoxyphenyl)-8-methylimidazo[1,2-a]pyridine] | 0.5
2 | CCN(CCOc1ccc(-c2cn3ccccc3n2)cc1)c1ccccc1 [Example 10, 2-(4-(N-Ethyl)anilinoethoxyphenyl)imidazo[1,2-a]pyridine] | 0.611
3 | Cc1cccn2cc(-c3ccc(OCCCNCc4ccccc4)cc3)nc12 [Example 43, 2-(4-Benzylaminopropoxyphenyl)-8-methylimidazo[1,2-a]pyridine] | 1
4 | Cc1cccn2cc(-c3ccc(NC(=O)CCN4CCCCC4)cc3)nc12 [Example 28, 2-[4-[3-(Piperidinyl)]propanamidophenyl]-8-methylimidazo[1,2-a]pyridine] | 0.158
5 | Cc1ccn2cc(-c3ccc(OCCCN4CCCCC4)cc3C)nc2c1 [Example 22, 2-(4-Piperidinopropoxy-2-methylphenyl)-7-methylimidazo[1,2-a]pyridine] | 0.001
6 | CCN(CC)CCCNc1ccc(-c2cn3cccc(C)c3n2)cc1 [Example 29, N,N-Diethyl-N′-[4-(8-methyl-imidazo[1,2-a]pyridin-2-yl)-phenyl]-propane-1,3-diamine] | 0.009
7 | Cc1cccn2cc(-c3ccc(OCC(O)CN4CCN(Cc5ccccc5)CC4)cc3)nc12 (stereo not shown) [Example 51, 2-[4-[2-Hydroxy-3-(4-benzylpiperazino)propoxy]phenyl]-8-methylimidazo[1,2-a]pyridine] | 5
8 | Cc1ccn2cc(-c3ccc(OCCCN4CCCCCC4)cc3F)nc2c1 [Example 21] | 0.015
9 | CCN(CC)CCNc1ccc(-c2cn3cccc(C)c3n2)cc1 [Example 7, N,N-Diethyl-N′-[4-(8-methyl-imidazo[1,2-a]pyridin-2-yl)-phenyl]-ethane-1,2-diamine] | 0.004
10 | Cc1ccn2cc(-c3ccc(C=CCCN4CCCCC4)cc3)nc2c1 (mixture of isomers) [Example 36, (E/Z)-2-[4-[4-Piperidinobut-1-enyl]phenyl]-7-methylimidazo[1,2-a]pyridine] | 0.011
11 | Cc1cccn2cc(-c3ccc(OCC(O)CN4CCN(CCc5ccccc5)CC4)cc3)nc12 (stereo not shown) [Example 50, 2-[4-[2-Hydroxy-3-(4-phenethylpiperazino)propoxy]phenyl]-8-methylimidazo[1,2-a]pyridi] | 1
12 | CCN(CC)CCC(=O)Nc1ccc(-c2cn3cccc(C)c3n2)cc1 [Example 6, 3-Diethylamino-N-[4-(8-methyl-imidazo[1,2-a]pyridin-2-yl)-phenyl]-propionamide] | 0.055
13 | Cc1ccn2cc(-c3cccc(OCCCN4CCCCC4)c3)nc2c1 [Example 15, 7-Methyl-2-[3-(3-piperidin-1-yl-propoxy)-phenyl]-imidazo[1,2-a]pyridine] | 0.028
14 | Cc1cccn2cc(-c3ccc(OCCCNC(C)c4ccccc4)cc3)nc12 (stereo not drawn) [Example 42, 2-(4-alpha-Methylbenzylaminopropoxyphenyl)-8-methylimidazo[1,2-a]pyridine] | 1
15 | Cc1ccn2cc(-c3ccc(/C=C/CCN4CCCC4)cc3)nc2c1 [Example 40, 7-Methyl-2-[4-(4-pyrrolidin-1-yl-but-1-enyl)-phenyl]imidazo[1,2-a]pyridine] | 0.017
16 | COc1cc(-c2cn3ccc(C)cc3n2)ccc1OCCCN1CCCCC1 [Example 26, 2-(4-Piperidinopropoxy-3-methoxyphenyl)-7-methylimidazo[1,2-a]pyridine] | 0.159
17 | Cc1cccn2cc(-c3ccc(NC(=O)CN4CCCC4)cc3)nc12 [Example 4, N-[4-(8-Methyl-imidazo[1,2-a]pyridin-2-yl)-phenyl]-2-pyrrolidin-1-yl-acetamide] | 0.07
18 | COc1cc(-c2cn3ccc(C)cc3n2)ccc1OCCCN1CCCCCC1 [Example 14, 2-[4-(3-Azepan-1-yl-propoxy)-3-methoxy-phenyl]-7-methyl-imidazo[1,2-a]pyridine] | 0.034
19 | Cc1cccn2cc(-c3ccc(NCCCN4CCCCC4)cc3)nc12 [Example 27, 2-[4-[3-(Piperidino)propylamino]phenyl]-8-methylimidazo[1,2-a]pyridine] | 0.007
20 | COc1cc(-c2cn3ccc(C)cc3n2)ccc1OCCCN1CCCC1 [Example 13, 2-[3-Methoxy-4-(3-pyrrolidin-1-yl-propoxy)-phenyl]-7-methyl-imidazo[1,2-a]pyridine] | 0.063

Row | SMILES | Ki [µM]
21 | Cc1ccn2cc(-c3ccc(OCCCN4CCC(N5CCCCC5)CC4)cc3C)nc2c1 [Example 23, 2-(4-(4-Piperidino)piperidinopropoxy-2-methylphenyl)-7-methylimidazo[1,2-a]pyridine] | 0.014
22 | Cc1cc(OCCCN2CCCCC2)ccc1-c1cn2c(n1)CC(C)CC2 (stereo not shown) [Example 17, 7-Methyl-2-[2-methyl-4-(3-piperidin-1-yl-propoxy)-phenyl]-5,6,7,8-tetrahydro-imidazo[1,2-a]pyridine] | 0.0032
23 | Cc1ccn2cc(-c3ccc(C#CCCN4CCCC4)cc3)nc2c1 [Example 34, 2-[4-[4-Pyrrolidinobut-1-ynyl]phenyl]-7-methylimidazo[1,2-a]pyridine] | 0.003
24 | Cc1ccn2cc(-c3ccc(OCCCN4CCCCCC4)cc3C)nc2c1 [Example 24] | 0.0005
25 | Cc1cc(-c2cn3ccccc3n2)ccc1OCCCN1CCCCC1 [Example 12, 2-(4-Piperidinopropoxy-3-methylphenyl)imidazo[1,2-a]pyridine] | 0.021
26 | c1ccn2cc(-c3ccc(OCCCN4CCCCC4)cc3)nc2c1 [Example 52, 2-[4-(3-Piperidin-1-yl-propoxy)-phenyl]-imidazo[1,2-a]pyridine] | 0.005
27 | Cc1cc(-c2cn3cccc(C)c3n2)ccc1OCCCN1CCCCC1 [Example 9, 2-(4-Piperidinopropoxy-3-methylphenyl)-8-methylimidazo[1,2-a]pyridine] | 0.032
28 | Cc1ccn2cc(-c3ccc(C#CCCN4CCCCC4)cc3)nc2c1 [Example 33, 2-[4-[4-Piperidinobut-1-ynyl]phenyl]-7-methylimidazo[1,2-a]pyridine] | 0.003
29 | Cc1cccn2cc(-c3ccc(OCCCNC4CCN(Cc5ccccc5)CC4)cc3)nc12 [Example 44, 2-[4-[N-[(1-Benzylpiperidino)amino]propoxy]phenyl]-8-methylimidazo[1,2-a]pyridine] | 0.15
30 | c1cc(-c2cn3c(n2)CCCC3)ccc1OCCCN1CCCCC1 [Example 16, 2-[4-(3-Piperidin-1-yl-propoxy)-phenyl]-5,6,7,8-tetrahydro-imidazo[1,2-a]pyridine] | 0.00075
31 | Cc1cccn2cc(-c3ccc(OCCCN4CCCCC4)cc3)nc12 [Example 54, 2-(4-Piperidinopropoxyphenyl)-8-methylimidazo[1,2-a]pyridine] | 0.001
32 | Cc1cc(-c2cn3ccccc3n2)ccc1OCCC1CCCN1C (stereo not shown) [Example 11, 2-[4-[2-(1-Methyl)-2-pyrrolidino]ethoxy-3-methylphenyl]imidazo[1,2-a]pyridine] | 0.007
33 | Cc1ccn2cc(-c3ccc(OCCCN4CCCC4)cc3)nc2c1 [Example 18, 2-(4-Pyrrolidinopropoxyphenyl)-7-methylimidazo[1,2-a]pyridine] | 0.002
34 | Cc1ccn2cc(-c3ccc(OCCCN4CCCCC4)cc3F)nc2c1 [Example 20, 2-(4-Piperidinopropoxy-2-fluorophenyl)-7-methylimidazo[1,2-a]pyridine] | 0.01
35 | Cc1cccn2cc(-c3ccc(NS(=O)(=O)CCCN4CCCCC4)cc3)nc12 [Example 53, 3-Piperidin-1-yl-propane-1-sulfonic acid [4-(8-methyl-imidazo[1,2-a]pyridin-2-yl)-phenyl]] | 0.63
36 | CCN(CC)CCOC(=O)c1ccc(-c2cn3cccc(C)c3n2)cc1 [Example 3, 4-(8-Methyl-imidazo[1,2-a]pyridin-2-yl)-benzoic acid 2-diethylamino-ethyl ester] | 0.02
37 | Cc1cccn2cc(-c3ccc(NCCN4CCCC4)cc3)nc12 [Example 32, [4-(8-Methyl-imidazo[1,2-a]pyridin-2-yl)-phenyl]-(2-pyrrolidin-1-yl-ethyl)-amine] | 0.007
38 | CCCNCC(O)COc1ccc(-c2cn3cccc(C)c3n2)cc1 (stereo not shown) [Example 46, 2-[4-(2-hydroxy-3-propylaminopropoxy)phenyl]-8-methylimidazo[1,2-a]pyridine] | 1
39 | Cc1cccn2cc(-c3ccc(OCCCN4CCN(CCc5ccccc5)CC4)cc3)nc12 [Example 45, 2-[4-[3-(4-Phenethylpiperazino)propoxy]phenyl]-8-methylimidazo[1,2-a]pyridine] | 0.5
40 | CC1CCn2cc(-c3ccc(CCCCN4CCCCC4)cc3)nc2C1 (stereo not shown) [Example 41, 7-Methyl-2-[4-(4-piperidin-1-yl-butyl)-phenyl]-5,6,7,8-tetrahydro-imidazo[1,2-a]pyridine] | 0.027
